How the values were obtained:
[1] = system: ileum isolated from guinea pigs, contraction induced by leukotriene D4; assay: Inhibition of leukotriene D4 induced contraction of isolated guinea pig ileum (antileukotriene activity); details: Average ± S.D.; leukotriene D4 1×10^-8 M; 30 minutes incubation with test compound; test compound concentration not given
Description: (§1) Antihistamine activity and antileukotriene activity:
(§2) The first three constant constractions induced by histamine (1×10^-5 M) or leukotriene D4 (1×10^-8 M) were used as the reference for the calculation of the inhibitory ratio. After repeated washings until contraction movement recurred, ileal strip was incubated with the test compound for 30 minutes. The contraction test was then conducted again using histamine or leukotriene D4. The inhibitory ratio (%) of the test compound on the ileum was calculated according to the following equation: [formula]

[2] = system: ileum isolated from guinea pigs, contraction induced by histamine; assay: Inhibition of histamine-induced contraction of isolated guinea pig ileum (antihistamine activity); details: Average ± S.D.; histamine 1×10^-5 M; 30 minutes incubation with test compound; test compound concentration not given
Description: as §1, §2

Leukotriene D4 receptors = biological target: T1, Leukotriene D4 receptors (Cavia porcellus, UniProt Q2NNR5); assay: Binding assay on Leukotriene D4 receptors (guinea-pig lung membrane protein, [^3 H]-leukotriene D4)
T1 construct: Preparation of guinea-pig lung membrane protein; from tissue; host or cells: guinea-pig lung membranes
T1 sequence (Q2NNR5 1-340): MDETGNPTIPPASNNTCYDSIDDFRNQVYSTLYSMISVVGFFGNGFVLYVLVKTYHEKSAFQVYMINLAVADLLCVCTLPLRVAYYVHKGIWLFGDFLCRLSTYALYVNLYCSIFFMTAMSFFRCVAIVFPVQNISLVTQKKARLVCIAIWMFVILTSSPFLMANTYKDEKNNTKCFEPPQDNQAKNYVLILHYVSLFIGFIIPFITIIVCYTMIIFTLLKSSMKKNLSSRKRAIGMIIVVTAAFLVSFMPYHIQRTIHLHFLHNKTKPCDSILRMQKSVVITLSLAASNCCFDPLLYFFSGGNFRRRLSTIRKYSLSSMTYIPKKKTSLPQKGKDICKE
Description: Binding assay on Leukotriene D4 receptors:
a) Preparation of guinea-pig lung membrane protein:

Row | Structure (SMILES) | Inhibition vs leukotriene D4 induced contraction (%) [1] | Inhibition vs histamine-induced contraction (%) [2] | antileukotriene activity (nature of the activity) (Leukotriene D4 receptors; binding assay on leukotriene D4 receptors) | Kd (Leukotriene D4 receptors; read-out: binding affinity on leukotriene D4 receptors (Kd))
1 | O=c1cc(-c2nnn[nH]2)oc2cc(OCCCN3CCC(=C(c4ccccc4)c4ccccc4)CC3)ccc12 [Compound (1), 7-[3-(4-Diphenylmethylenepiperidin-1-yl)propyloxy]-2-(5-tetrazolyl)-4-oxo-4H-benzopyran] | 15 ± 1% | 52 ± 7% | antagonistic | 2320 nM
2 | CCCc1c(OCC(O)COc2ccc3c(=O)cc(C(=O)O)oc3c2CCC)ccc(C(C)=O)c1O (centres unmarked) [FPL-55712] | 11 ± 4% | 0% |  | 
3 | CC(C)(C)c1ccc(C(O)CCCN2CCC(C(O)(c3ccccc3)c3ccccc3)CC2)cc1 (centres unmarked) [Terfenadine] | 0% | 5 ± 1% |  | 
